Reference: patent publication US8895726B2, “Compounds derived from indole and pharmaceutical compositions containing them” (The Institut Curie, priority 2007, dated 2014)

Experiments:
HeLa cells = assay: Cell toxicity under the experimental conditions; assay type: cell-based; details: tested maximum concentration of 125 μM
Text: The results have shown that among the 30 tested compounds, five of them were able to stabilize both the Ter G1 mRNA level and the Ter GPx1 mRNA level and this in a dose-dependent way.

Ter G1 mRNA = assay: NMD measurement by RT-PCR, β-globin (G1) Ter mRNA; assay type: cell-based; details: both at the nucleus and at the cytoplasm (Ter G1 and Ter GPx1 mRNA)
Procedure: HeLa cells were grown in 60 mm dishes in DMEM medium (Dulbecco's Modified Eagle Medium, GIBCO-BRL) supplemented with 10% (v/v) of fetal calf serum at 37° C. and with 5% CO2. The cells (1×10^6) were then transfected with 3 μg of test plasmids pmCMV-G1 (Norm or 39Ter) (Sun et al., 1998) or 3 μg pf test plasmids pmCMV-GPx1 (Norm or 46Ter) (Moriarty et al., 1998) and 1 μg of reference plasmid phCMV-MUP (Belgrader and Maquat, 1994) by using the LIPOFECTAMINE PLUS REAGENT (INVITROGEN) kit according to the instructions of the manufacturer. 24 hours after transfection, the cells were treated for 20 hours with 5 μM of each of the compounds to be tested or with 0.01% (v/v) DMSO as a control. The total RNA was purified by using TRI reagent (SIGMA-ALDRICH) according to the instructions of the manufacturer, and then reverse transcription of the mRNAs G1, GPx1 and MUP was carried out before PCR amplification, in the presence of a ^32P-radiolabelled dCTP nucleotide. The PCR conditions and the analysis method were described earlier (Ishigaki et al., 2001). The PCR products were quantified on a Typhoon 9200 (Amersham Biosciences).
HeLa cells were transfected with two test plasmids coding for the RNAs of β-globin (G1) and of glutathione peroxidase 1 (GPx1) and having a termination codon either premature (Ter) or not (Norm). The G1 mRNA is subject to an NMD associated with the nucleus in non-erythroid cells (Thermann et al., 1998; Zhang et al., 1998) while GPx1 mRNA is subject to cytoplasmic NMD (Moriarty et al., 1998). Further, a reference plasmid coding of mRNA of a major urinary protein (MUP) was also introduced into the cells (Ishigaki et al., 2001).
24 hours after transfection, the cells were incubated for 20 hours with DMSO (−) as a control, or with 5 μM of indole compounds shown in Table I. After 20 hours, the total RNAs are finally purified and analyzed by RT-PCR.

Cc1c2ccnc(Cl)c2c(C)c2c1[nH]c1ncccc12 [Compound 70, 6-Chloro-5,1-0dimethyl-11H-pyrido[3′,2′:4,5]-pyrrolo[3,2-g]isoquinoline]
cell toxicity (HeLa cells): did not exhibit any cell toxicity
NMD inhibition (Ter G1 mRNA): inhibitors of NMD
